The values below come from patent publication US20070078207A1, “Stabilizer cyanoacrylate formulations” (priority 2005, published 2007).

This series deals with L5178Y TK^±. Nature of the series: Mouse lymphoma screening study, mutation assay without activation (protocol 431ICH1 edition 3). The class given is cell-based. On the procedure:
In order to determine mutagenic activity for cyanoacrylate compositions containing hydroquinone, a mouse lymphoma screening study was conducted according to methods known in the art. The assay protocol used was 431ICH1 edition 3 (L5178Y TK^±) and was conducted by Covance, Inc. The amount of radical stabilizer in each of the cyanoacrylate compositions was varied. The selective agent was 3.0 μg/ml 5-trifluorothymidine (TFT).

`Oc1ccc(O)cc1` [HQ in saline, hydroquinone]: the mutagenic activity entry (result in words, mutagenic activity defined as 124.1×10E-6 units) was “does not exhibit mutagenicity”. Further, where the note is “without activation, Relative to Vehicle Control (%)”, the “Cumulative RSG” value amounted to 2.0%. Also, the “Daily Cell Counts Day 2” value (without activation, footnote g = not subcultured) was 0.9^g Cell/ML, 10E5 units. Further, the “Daily Cell Counts Day 1” value (without activation, selective agent 3.0 μg/ml TFT) was 0.5 Cell/ML, 10E5 units.
